Reference: patent US5514773A, “Depsipeptide derivatives, production thereof and use thereof” (Fujisawa Pharmaceutical Co., Ltd., priority 1992, dated 1996)

What was measured:
Format in all cases: in vivo
[1] = test system: Nippostrongylus brasilienses; experiment: Test 1: reduction of Nippostrongylus brasilienses in infected rats, oral administration; settings: Wistar rats, oral on 7th, 8th and 9th day after infection, parasites in small intestines counted on 11th day
Protocol: (§1) The effect of parasiticides was examined with the rats which was infected by nematodes which are parasitic on rats, Nippostrongylus brasilienses.
(§2) Wistar strain rats (female 6 weeks old, 120-130 g weight) were […] by infecting them and giving them subcutaneous injections of 3000 infective larvae per rat.
(§3) Test compound of 50 mg was dissolved in 0.25 ml dimethylsulfoxide, 0.5% methylcellulose solution was added, and liquid volume was adjusted to be prescribed volume of 100, 10, 5, 2.5, 1.25, 1.0, 0.63, 0.32 mg/kg to utilize. After they were infected, on each 7th, 8th, and 9th day, the test compound was administered orally with above concentration. On the 11th day, the rat was dissected and the numbers of parasites in the small intestines were measured.
The given measurement was based to calculate the reduction rate from the percentage of the numbers of the parasites of unadministered rats (control). The result of it is shown in the […]

[2] = test system: Nippostrongylus brasilienses; experiment: Test 2: reduction of Nippostrongylus brasilienses in infected rats, subcutaneous administration; settings: Wistar rats, otherwise as Test 1
Protocol: as §1, §2, §3
The given measurement was based to calculate the reduction rate from the percentage of the numbers of the parasites of unadministered rats (control). The result of it is shown in the
The reduction rate was calculated in a similar manner as Test 1 except when the test compound was subcutaneously administered to the rats instead of oral administration as in Test 1.

[3] = test system: Strongyloides venezuelensis; experiment: Test 3: Strongyloides venezuelensis in infected Mongolian gerbils, eggs in feces and worms recovered; settings: oral once 20 mg/kg, group mean
Source text: For 1 rat, the 5000 infective larvae of Strongyloides venezuelensis were infected percutaneously to one group (2 rats) of 8 weeks old Mongolian gerbils. On the 10th day after they were infected, the suspended test compound was orally administered once with the amount of established administration. The effect was judged according to the amount of the eggs in the feces or the numbers of worms in the intestinal tract. The measurement of the numbers of the eggs were taken from O ring method, and the numbers of the eggs (EPG) in 1 g of feces were counted on the day before, on the day, and on the 1st, 2nd, 3rd, and 4th day after the administration. The numbers of the parasites were measured by dissecting Mongolian gerbils the 4th day after the administration (on the 14th day after infection). The method of measurement was followed by releasing the parasites, which live in the small intestines, into saline solution over night, and the released parasites were set to be as numbers of worms recovered.

SMILES: CC(C)C[C@H]1C(=O)O[C@H](Cc2ccccc2)C(=O)N(C)[C@@H](CC(C)C)C(=O)O[C@H](C)C(=O)N(C)[C@@H](CC(C)C)C(=O)O[C@H](Cc2ccccc2)C(=O)N(C)[C@@H](CC(C)C)C(=O)O[C@H](C)C(=O)N1C [PF1022]
- Minimum Amount of Administration indicated by more than 95% of Reduction Rate [1]: 10 mg/kg
- Minimum Amount of Administration indicated by more than 95% of Reduction Rate [2]: > 100 mg/kg
- Change in Numbers of Parasites' Number of Eggs in Feces (EPG/100) ([3]; day 0 (starting day of administration)): 1615 EPG/100
- Change in Numbers of Parasites' Number of Eggs in Feces (EPG/100) ([3]; day 1 after administration): 581 EPG/100
- Change in Numbers of Parasites' Number of Eggs in Feces (EPG/100) ([3]; day 2 after administration): 1563 EPG/100
- Change in Numbers of Parasites' Number of Eggs in Feces (EPG/100) ([3]; day 3 after administration): 935 EPG/100
- Change in Numbers of Parasites' Number of Eggs in Feces (EPG/100) ([3]; day 4 after administration): 1005 EPG/100
- Change in Numbers of Parasites' Number of Eggs in Feces (EPG/100) ([3]; day -2 (before administration)): 332 EPG/100
- Numbers of the Worms recovered ([3]; dissected 4th day after administration): 3088
